Measurements published in paper PMC13538185, “The PSD-95 inhibitor NA-1 is delivered to the brain upon nasal administration with uptake into the olfactory bulb improved by co-administration with the cell-penetrating peptides lowPro and Tat” (Drug Delivery and Translational Research, 2025).

What was measured:
[1] = system: primary porcine olfactory epithelial monolayers; details: ALI 20-21 days, apical to basolateral, 0.5 mg/mL in transport medium (MEM, 0.05% BSA), 37 °C, fluorescence read-out, mean (N = 3-4, n = 3)
Experimental: Transport studies were performed on olfactory epithelial cell monolayers cultured for 20 or 21 days under ALI conditions. […] 50 µL samples were withdrawn at time points 0.5, 1, 1.5, 2, 3, 4, and 24 h into black clear-bottom 96-well plates. The sampling volume was immediately replaced with 37 °C transport medium. […] The experiments with NA-1 and the cell-penetrating peptides were initiated by gently applying 300 µL samples (50 µM NA-1 alone or co-administered with 50 µM Tat, LowPro, or PenShuf) in 37 °C transport buffer to the apical compartment. 75 µL samples were withdrawn at time points 1, 2, 3, and 16 h into glass vials. The sampling volume was immediately replaced with 37 °C transport buffer. NA-1 was labelled with selenomethionine (M^Se) between the Tat and the NR2B9c moiety to facilitate analysis through selenium quantification using inductively coupled plasma mass spectrometry (ICP-MS). For selenium analysis, the samples were subjected to flow injection analysis on a Dionex Ultimate 3000 UPLC (Thermo Fischer Scientific, Germering, Germany) with ICP-MS detection using an Agilent 8800 Triple Quad equipped with a 2.5 mm quartz torch with platinum sampler -and skimmer cones (Agilent Technologies, Santa Clara, CA, USA).

[2] = system: primary porcine olfactory epithelial monolayers; assay: Transepithelial electrical resistance (TEER) before and after peptide incubation; format: cell-based; details: 100 µM peptide, 3 h incubation, N = 3, n = 2
Description: Thereafter, the cells were equilibrated to RT prior measuring the TEER with a chopstick electrode or in an Endohm-24 cup connected to an Epithelial Volt/Ohm meter (both World Precision Instruments, Sarasota, FL, USA). The measured TEER values were subtracted the resistance across an empty Transwell insert and multiplied with the area of the insert (0.33 cm^2) to obtain the standardized unit Ω⋅cm^2.

NMRI mice [3] = details: nasal
[4] = not given; remark: listed apart in the source
NMRI mice [5] = assay: Biodistribution after intravenous bolus injection to mice (reference group); details: mice, 3 nmol/g, 1 h
Experimental: (§1) In an intravenous reference group, NA-1 was administered as a bolus injection (3 nmol/g body weight in 0.9% NaCl) into the tail vein. After 60 min compound circulation, the animals were transcardially perfused with 0.01 M PBS (pH 7.4). The brain, olfactory bulb, heart, lungs, spleen, kidneys, liver, and 2–3 cm of the upper part of duodenum were collected in 2 mL tubes and stored at -70 °C until analysis. […] The homogenate was spun down for 10 min at 14,000 rpm and 4 °C in a Sigma 1–15 K centrifuge (DJB Labcare, Newport Pagnell, England). […] Biodistribution of NA-1 was assessed by measuring the selenium content in tissue digested in HNO3 for 3–5 days at room temperature (50 mg tissue per 0.5 mL HNO3 for heart, lungs, spleen, kidney, and duodenum or 0.2 mL HNO3 for olfactory bulb and 1 mL HNO3 for the remaining brain. The tissue samples were spun down for 5 min at 10,000 rpm in a Sigma 1–15 K centrifuge (DJB Labcare, Newport Pagnell, England) before dilution (1:5–1:32) in 5% methanol with 0.1% trifluoroacetic acid in ultrapure water. The samples were analyzed with ICP-MS as described for transport studies, but with a 20 µL injection volume and a 2 min run time.

[6] = as above; details: mouse, in vivo, iv, 3 nmol/g body weight
Experimental: as §1

[7] = not given; remark: listed apart in the source
[8] = system: primary porcine olfactory epithelial monolayers; assay: Transport of NA-1 alone or co-administered with cell-penetrating peptides across primary porcine olfactory epithelial monolayers (ICP-MS of selenium); format: in vitro ADME
Description: Oxygen was applied as reaction gas.

[9] = system: primary porcine olfactory epithelial cells; assay: Cellular metabolic activity (XTT assay); format: cell-based; details: 4 h incubation with 50 or 100 µM peptide in transport medium, 37 °C, N = 3, n = 3
Experimental: The cellular metabolic activity was assessed on olfactory epithelial cells cultured in a 96-well plate for 48 h using a commercially available sodium 3´-[1-(phenylaminocarbonyl)-3,4-tetrazolium]-bis (4-methoxy-6-nitro) benzene sulfonic acid hydrate (XTT) assay as directed by the manufacturer. […] Cells incubated with transport medium (MEM w/o phenol red, 0.05% BSA, 0.1 U/mL Penicillin, 0.1 µg/mL Streptomycin) without peptides served as live cell controls and wells with transport medium but no cells served as dead cell controls. After peptide incubation, the cells were gently washed twice with transport medium before incubation with 100 µL transport medium and 50 µL XTT labelling mixture (electron-coupling reagent: XTT labelling reagent 1:50) for 1 h at 37 °C with horizontal shaking (90 rpm). Samples (100 µL) from each well were transferred to a new 96-well plate and the absorbance was measured at 466 nm using a SPECTROstar Nano plate reader (BMG Labtech, Ortenberg, Germany). The relative cellular viability was calculated by Eq. 1:1

[10] = NA-1 alone, 3 nmol/g body weight, 1 h after administration, perfused, ICP-MS of selenium, mean (N = 4-6)

O=C([O-])c1ccccc1-c1c2ccc(=O)cc-2oc2cc([O-])ccc12.[Na+].[Na+] [sodium fluorescein]
Fraction of applied compound permeated the barrier upon 24 h of incubation [1]: 29.3%

RWFKIQMQIRRWKNKK [PenShuf]
Barrier integrity (TEER before vs after incubation), highest applied concentration [2]: negatively affect the barrier integrity

CC[C@H](C)[C@H](NC(=O)[C@H](CO)NC(=O)[C@H](CO)NC(=O)[C@H](CC(C)C)NC(=O)[C@H](CCCCN)NC(=O)[C@H](CC[Se]C)NC(=O)[C@@H](CCCNC(=N)N)NC(=O)[C@@H](CCCNC(=N)N)NC(=O)[C@@H](CCCNC(=N)N)NC(=O)[C@@H](CCC(N)=O)NC(=O)[C@@H](CCCNC(=N)N)NC(=O)[C@@H](CCCNC(=N)N)NC(=O)[C@@H](CCCCN)NC(=O)[C@@H](CCCCN)NC(=O)[C@@H](CCCNC(=N)N)NC(=O)CNC(=O)[C@H](N)Cc1ccc(O)cc1)C(=O)N[C@@H](CCC(=O)O)C(=O)N[C@@H](CO)C(=O)N[C@@H](CC(=O)O)C(=O)N[C@H](C(=O)O)C(C)C [NA-1]
Rank order of off-target tissue distribution (NMRI mice [3]; 3 nmol/g, 1 h, not affected by co-administration with the cell-penetrating peptides): kidney > liver > spleen > duodenum > lung > heart
NA-1 accumulation in the olfactory bulb, co-administered with LowPro (NMRI mice [3]; NA-1:LowPro 1:1 molar ratio, 3 nmol/g, 1 h, ICP-MS, mean (N = 4-6)): 2.98 % administered dose/g
NA-1 accumulation in the olfactory bulb, co-administered with PenShuf (NMRI mice [3]; NA-1:PenShuf 1:1 molar ratio, 3 nmol/g, 1 h, ICP-MS, mean (N = 4-6)): 1.63 % administered dose/g
NA-1 accumulation in the olfactory bulb, co-administered with Tat (NMRI mice [3]; NA-1:Tat 1:1 molar ratio, 3 nmol/g, 1 h, ICP-MS, mean (N = 4-6)): 2.13 % administered dose/g
NA-1 accumulation in the olfactory bulb (NMRI mice [3]; [10]): 1.38 % administered dose/g
NA-1 accumulation in the remaining brain (NMRI mice [3]; [10]): 0.54 % administered dose/g
Combined amount of NA-1 reaching the olfactory bulb and the brain (NMRI mice [3]; NA-1 alone, 1 h, p = 0.15 vs intravenous control): 1.92 % of administered dose/g
apparent permeability (Papp) of NA-1 co-administered with LowPro (× 10^− 6 cm/sec): 0.22
apparent permeability (Papp) of NA-1 co-administered with Tat (× 10^− 6 cm/sec) [4]: 0.09
Fold higher amount of NA-1 in duodenum, intravenous vs nasal administration (NMRI mice [5]): 4.5 fold
Fold higher amount of NA-1 in kidneys, intravenous vs nasal administration (NMRI mice [5]): 9.5 fold
Fold higher amount of NA-1 in lungs, intravenous vs nasal administration (NMRI mice [5]): 2.8 fold
Fold higher amount of NA-1 in spleen, intravenous vs nasal administration (NMRI mice [5]): 1.6 fold
tissue uptake at 1 h [6]: 1.57 %ID/g
apparent permeability (Papp) of NA-1 co-administered with PenShuf (× 10^− 6 cm/sec) [7]: 0.8
Effect of co-administration with PenShuf on barrier permeation of NA-1 at the 16 h time-point ([8]; 50 µM NA-1 + 50 µM PenShuf vs NA-1 alone, 16 h, ICP-MS, N = 6, p < 0.0001 one-way ANOVA): significantly improved
Fold better permeation potential of NA-1 compared to 4 KDa FITC-dextran ([8]; ratio of Papp values across primary porcine olfactory monolayers): 3.2 fold

N=C(N)NCCC[C@H](NC(=O)[C@H](CCCNC(=N)N)NC(=O)[C@H](CCCNC(=N)N)NC(=O)[C@H](CCC(N)=O)NC(=O)[C@H](CCCNC(=N)N)NC(=O)[C@H](CCCNC(=N)N)NC(=O)[C@H](CCCCN)NC(=O)[C@H](CCCCN)NC(=O)[C@H](CCCNC(=N)N)NC(=O)CNC(=O)[C@@H](N)Cc1ccc(O)cc1)C(=O)O [Tat]
Cellular metabolic activity relative to cell culture media controls [9]: slight decrease
